Test results from US20150140123A1, “Protein expression analyses for identifying genotoxic compounds” (Merck Patent GmbH, priority 2012, published 2015).
Like-named read-outs stand apart in the source and are kept apart here.

Columns and labels:
HepG2 cells = test: High content imaging cytotoxicity parameters: selected cell count per valid field (SCC) and CMFDA cytoplasm average intensity
Method: (§1) HepG2 cells (Order No. HB-8065, Lot. 58483209, ATCC, Manassas, USA) were cultured in DMEM/F12 with L-Glutamine and 15 mM Hepes supplemented with 10% (v/v) FBS, 1% (v/v) penicillin (10 kU/ml)/streptomycin (10 mg/ml) solution, 0.1% (v/v) gentamicin (50 mg/ml), and 1 mM sodium pyruvate at 37° C. and 5% CO2 in culture flasks. Depending on the experiment, an appropriate number of cells were seeded onto plates after detaching of the cells using trypsin and cells were cultured at 37° C. and 5% CO2 for 24 h prior to treatment. All experiments were performed three times with cells of passages 4-20.
(§2) Cells were seeded onto black Poly-D-Lysin coated 96-well-plates (BD Biocoat, Franklin Lakes, USA) (0.02×10^6 cells/well) and left 24 h for adherence and then treated with test compounds at a maximum concentration of 1 mM which is recommended by the ICH S2(R1) guideline (EMA, 2011). For each compound, nine concentrations were tested with 2-fold serial dilutions. DMSO 1% (v/v) served as vehicle control for the experiments. The treatment procedure was different for direct-genotoxic and pro-genotoxic compounds. The treatment for direct genotoxic compounds was ongoing and was repeated daily over 48 h. Pro-genotoxic compounds were incubated for 6 h together with metabolic activation system (to limit the cytotoxic effect of the S9-mixture). After this period, cells were washed with cell media followed by 18-repeated daily over 48 h. The metabolic activation system used consisted of the following components and concentrations: 8 mM MgCl2, 32.8 mM KCl, 12 mM NADPH, 124 mM phosphate buffer and 2500 pmol/ml cytochrome P450 (CYP) content in the pre-mixture corresponding to 2.4 mM MgCl2, 9.8 mM KCl, 3.6 mM NADPH, 37.2 mM phosphate buffer, and 750 pmol/ml CYP as final concentrations after dilution 1:3.33 with cell culture media.
After treatment, cells were rinsed with PBS (Gibco Invitrogen, Karlsruhe, Germany), and then stained with 10 μM CellTracker Green 5-Chloromethylfluorescein Diacetate (CMFDA) (Invitrogen, Karlsruhe, Germany) in cell culture media for 30 min. CMFDA is per se non-fluorescent and is hydrolyzed by esterase in viable cells to a fluorescent-dye. The reaction with thiol groups leads to a cell-impermeable fluorescent-dye-adduct. The esterase activity can be used as an indicator for viability of cells (Papadopoulos et al., 1994, J Immunol Methods 177, 101-11). Afterwards, cells were washed with PBS and fixed with 3.7% Formaldehyde (Sigma-Aldrich, Taufkirchen, Germany) in PBS for 20 min. After that, cells were washed with PBS and blocked and permeabilized with 2% donkey serum (Millipore, Schwalbach, Germany) and 0.25% Triton X-100 (Sigma-Aldrich, Taufkirchen, Germany) in PBS for 30 min. Primary antibodies were diluted in Blocking/Permeabilization solution to final concentrations of 4 μg/ml anti-p-Chk1 (Ser345) goat polyclonal antibody IgG (santa cruz, Santa Cruz, USA), 4 μg/ml anti-p-ATM (Ser1981) mouse monoclonal antibody IgG1K (Millipore, Schwalbach, Germany) and added to the cells. After incubation for 16-18 h, cells were washed with 0.05% Tween 20 (Calbiochem, Darmstadt, Germany) in PBS, and the secondary antibody/16 μM Hoechst staining solution Blocking/Permeabilization solution was added. Secondary antibodies were diluted 1:400 (Alexa Fluor 555 donkey anti-goat, Alexa Fluor 647 donkey anti-mouse, Invitrogen, Karlsruhe, Germany). After an incubation of 1 h, followed by two additional washing steps with 0.05% Tween 20, cells were washed with PBS and finally PBS was added and cells were measured.
Image acquisition was performed on the ArrayScan VTI HCS Reader (Cellomics, Pittsburgh, USA) using a 20× objective. To detect enough cells, 50 images starting at the middle of each well were gathered.
• Channel 1: selected cell count per valid field • Channel 2: CMFDA cytoplasm average intensity • Channel 3: p-Chk1 (Ser345) nucleus average intensity • Channel 4: p-ATM (Ser1981) nucleus average intensity

[1] = tested on: p-p53 (Ser15), p21, p-H2A.X (Ser139), p-ATM (Ser1981), p-Chk1 (Ser345) in HepG2 cells
Method: as §1, §2
Two different staining procedures were performed for each compound with and without metabolic activation system:
After treatment, cells were rinsed with PBS (Gibco Invitrogen, Karlsruhe, Germany), and then fixed with 3.7% formaldehyde (Sigma-Aldrich, Taufkirchen, Germany) in PBS for 20 min. After an additional washing step with PBS, cells were blocked and permeabilized with 2% donkey serum (Millipore, Schwalbach, Germany) and 0.25% Triton X-100 (Sigma-Aldrich, Taufkirchen, Germany) in PBS for 30 min. Primary antibodies were diluted to final concentrations of 2 μg/ml anti-p-p53 (Ser15) rabbit monoclonal antibody IgG (Invitrogen, Karlsruhe, Germany), 0.8 μg/ml anti-p21 goat polyclonal antibody IgG, (R&D systems, Minneapolis, USA); 4 μg/ml anti-p-Histone H2A.X (Ser139) mouse monoclonal antibody IgG1 (Millipore, Schwalbach, Germany) in Blocking/Permeabilization solution were added afterwards. After incubation for 16-18 h, cells were washed with 0.05% Tween 20 (Calbiochem, Darmstadt, Germany) in PBS and the secondary antibody/16 μM Hoechst staining solution in Blocking/Permeabilization solution was added. Secondary antibodies were diluted 1:400 (Alexa Fluor 488 donkey anti-rabbit, Alexa Fluor 555 donkey anti-goat, Alexa Fluor 647 donkey anti-mouse, Invitrogen, Karlsruhe, Germany). After an incubation of 1 h, followed by two additional washing steps with 0.05% Tween 20, cells were washed with PBS and finally PBS was added and cells were measured.
After treatment, cells were rinsed with PBS (Gibco Invitrogen, Karlsruhe, Germany), and then stained with 10 μM CellTracker Green 5-Chloromethylfluorescein Diacetate (CMFDA) (Invitrogen, Karlsruhe, Germany) in cell culture media for 30 min. CMFDA is per se non-fluorescent and is hydrolyzed by esterase in viable cells to a fluorescent-dye. The reaction with thiol groups leads to a cell-impermeable fluorescent-dye-adduct. The esterase activity can be used as an indicator for viability of cells (Papadopoulos et al., 1994, J Immunol Methods 177, 101-11). Afterwards, cells were washed with PBS and fixed with 3.7% Formaldehyde (Sigma-Aldrich, Taufkirchen, Germany) in PBS for 20 min.

[2] = HepG2 cells, 48 h, CMFDA cytoplasm average intensity, with rat liver S9 (+S9)
[3] = HepG2 cells, 48 h, CMFDA cytoplasm average intensity, without metabolic activation (−S9)
[4] = HepG2 cells, 48 h, selected cell count per valid field, with rat liver S9 (+S9)
[5] = HepG2 cells, 48 h, selected cell count per valid field, without metabolic activation (−S9)

**Q.** What does the source list for Cc1noc(NS(=O)(=O)c2ccc(N)cc2)c1C [Sulfisoxazole]?
**A.** CMFDA +S9 highest conc. <50% cytotox. over control (HepG2 cells; human, 48 h): 1000 µM; CMFDA −S9 highest conc. <50% cytotox. over control (HepG2 cells; human, 48 h): 1000 µM; SCC +S9 highest conc. <50% cytotox. over control (HepG2 cells; human, 48 h): 1000 µM; SCC −S9 highest conc. <50% cytotox. over control (HepG2 cells; human, 48 h): 1000 µM

**Q.** Which “CMFDA +S9 highest conc. <50% cytotox. over control” value (HepG2 cells; human, 48 h) does the source give for CC(=O)O[C@H]1C(=O)[C@@]2(C)[C@H]([C@H](OC(=O)c3ccccc3)[C@]3(O)C[C@H](OC(=O)[C@H](O)[C@@H](NC(=O)c4ccccc4)c4ccccc4)C(C)=C1C3(C)C)[C@]1(OC(C)=O)CO[C@@H]1C[C@@H]2O [Taxol] here?
**A.** Its value is 1000 µM.

**Q.** What about the “CMFDA −S9 highest conc. <50% cytotox. over control” value (HepG2 cells; human, 48 h) of the same molecule?
**A.** The value was 1000 µM.

**Q.** And the “SCC +S9 highest conc. <50% cytotox. over control” value (HepG2 cells; human, 48 h)?
**A.** The value was 500 µM.

**Q.** What about the “SCC −S9 highest conc. <50% cytotox. over control” value (HepG2 cells; human, 48 h) of the same molecule?
**A.** The value was 1000 µM.

**Q.** What does the source list for CC(C)(C)c1cc(O)ccc1O [Tertiary-butylhydroquinone]?
**A.** CMFDA +S9 highest conc. <50% cytotox. over control (HepG2 cells; human, 48 h): 1000 µM; CMFDA −S9 highest conc. <50% cytotox. over control (HepG2 cells; human, 48 h): 125 µM; SCC +S9 highest conc. <50% cytotox. over control (HepG2 cells; human, 48 h): 1000 µM; SCC −S9 highest conc. <50% cytotox. over control (HepG2 cells; human, 48 h): 125 µM

**Q.** With CCCCC(CC)COP(=O)(OCC(CC)CCCC)OCC(CC)CCCC (centres unmarked) [Tris(2-ethylhexyl)phosphate] as the molecule, how does the “CMFDA +S9 highest conc. <50% cytotox. over control” value (HepG2 cells; [2]) read?
**A.** The value was 1000 µM.

**Q.** What about the “CMFDA −S9 highest conc. <50% cytotox. over control” value (HepG2 cells; [3]) of the same molecule?
**A.** Its value is 7.813 µM.

**Q.** And the “SCC +S9 highest conc. <50% cytotox. over control” value (HepG2 cells; [4])?
**A.** Its value is 1000 µM.

**Q.** And the “SCC −S9 highest conc. <50% cytotox. over control” value (HepG2 cells; [5])?
**A.** Its value is 500 µM.

**Q.** For NC(N)=O [Urea], which “CMFDA +S9 highest conc. <50% cytotox. over control” value (HepG2 cells; [2]) is on record?
**A.** Its value is 1000 µM.

**Q.** What about the “CMFDA −S9 highest conc. <50% cytotox. over control” value (HepG2 cells; [3]) of the same molecule?
**A.** Its value is 1000 µM.

**Q.** What about the “SCC +S9 highest conc. <50% cytotox. over control” value (HepG2 cells; [4]) of the same molecule?
**A.** The value was 1000 µM.

**Q.** And the “SCC −S9 highest conc. <50% cytotox. over control” value (HepG2 cells; [5])?
**A.** The value was 1000 µM.

**Q.** With CCCCCl [n-butyl chloride] as the molecule, how does the “CMFDA +S9 highest conc. <50% cytotox. over control” value (HepG2 cells) read?
**A.** Its value is 1000 µM.

**Q.** And the “CMFDA −S9 highest conc. <50% cytotox. over control” value (HepG2 cells)?
**A.** Its value is 1000 µM.

**Q.** What about the “SCC +S9 highest conc. <50% cytotox. over control” value (HepG2 cells) of the same molecule?
**A.** The value was 1000 µM.

**Q.** What about the “SCC −S9 highest conc. <50% cytotox. over control” value (HepG2 cells) of the same molecule?
**A.** The value was 1000 µM.

**Q.** What does the source list for Nc1ccccc1C(=O)O [o-Anthranilic acid]?
**A.** CMFDA +S9 highest conc. <50% cytotox. over control (HepG2 cells; [2]): 1000 µM; CMFDA −S9 highest conc. <50% cytotox. over control (HepG2 cells; [3]): 1000 µM; SCC +S9 highest conc. <50% cytotox. over control (HepG2 cells; [4]): 1000 µM; SCC −S9 highest conc. <50% cytotox. over control (HepG2 cells; [5]): 1000 µM

**Q.** How did the “result for the five protein markers tested (compound set as positive or negative)” value [1] turn out when O=[N+]([O-])c1ccc(O)cc1 [p-Nitrophenol] was run?
**A.** The value was “positive”.

**Q.** Which results are given for Nc1ccc(Cl)cc1 [p-chloroaniline]?
**A.** CMFDA +S9 highest conc. <50% cytotox. over control (HepG2 cells; human): 1000 µM; CMFDA −S9 highest conc. <50% cytotox. over control (HepG2 cells; human): 1000 µM; SCC +S9 highest conc. <50% cytotox. over control (HepG2 cells; human): 1000 µM; SCC −S9 highest conc. <50% cytotox. over control (HepG2 cells; human): 1000 µM

**Q.** Aflatoxin B1 was tested. Which “CMFDA +S9 highest conc. <50% cytotox. over control” value (HepG2 cells) did it give?
**A.** The value was 500 µM.

**Q.** And the “CMFDA −S9 highest conc. <50% cytotox. over control” value (HepG2 cells)?
**A.** The value was 500 µM.

**Q.** What about the “SCC +S9 highest conc. <50% cytotox. over control” value (HepG2 cells) of the same molecule?
**A.** The value was 500 µM.

**Q.** And the “SCC −S9 highest conc. <50% cytotox. over control” value (HepG2 cells)?
**A.** The value was 31.25 µM.

**Q.** Which results are given for Sodium xylene sulfonate?
**A.** CMFDA +S9 highest conc. <50% cytotox. over control (HepG2 cells; [2]): 1000 µM; CMFDA −S9 highest conc. <50% cytotox. over control (HepG2 cells; [3]): 1000 µM; SCC +S9 highest conc. <50% cytotox. over control (HepG2 cells; [4]): 1000 µM; SCC −S9 highest conc. <50% cytotox. over control (HepG2 cells; [5]): 1000 µM
